Entries after “also recorded” stand apart in the source; their conditions may differ.
Legend:
[1] = In vivo elution: HPLC detection of TA in tissues after 4-week subretinal implantation; set-up: species or system rabbit; conditions: four weeks after the implant, PCL/TA 60:40 subretinal
[2] = 72 hours after injection; cited from earlier work
[3] = direct injection, posterior segment; cited from earlier work

| SMILES | TA detection in anterior structures or blood (HPLC) [1] | TA detection in posterior tissue samples (HPLC) [1] | triamcinolone present in the vitreous associated with other tissues including retina, pigment epithelium, sclera [2] | adverse or undesirable side effects observed [3] |
| --- | --- | --- | --- | --- |
| CC1(C)O[C@@H]2C[C@H]3[C@@H]4CCC5=CC(=O)C=C[C@]5(C)[C@@]4(F)[C@@H](O)C[C@]3(C)[C@]2(C(=O)CO)O1 [TA, Triamcinolone acetonide] | not detected | confirmed the presence; also recorded: localized to the posterior eye segment |  |  |
| C[C@]12C=CC(=O)C=C1CC[C@H]1[C@@H]3C[C@@H](O)[C@](O)(C(=O)CO)[C@@]3(C)C[C@H](O)[C@@]12F [triamcinolone] |  |  | less than 1% | elevations in intraocular pressure and the formation of, or acceleration of the development of cataracts |

— patent publication US20060024350A1, “Biodegradable ocular devices, methods and systems” (priority 2004, published 2006)
